Experimental data taken from paper PMC8928955, “Assessment of Bioavailability after In Vitro Digestion and First Pass Metabolism of Bioactive Peptides from Collagen Hydrolysates” (Current Issues in Molecular Biology, 2021).
Like-named read-outs stand apart in the source and are kept apart here. Non-standard residues stand in square brackets, D forms with d. Residues, ends and D or L forms follow the SMILES beside them. Hyp = O=C(O)[C@@H]1C[C@@H](O)CN1

Columns and labels:
in vitro [1] = conditions: human
Experimental: (§1) A HIEC-6/HepG2 cell co-culture system was used to determine the bioavailability of targeted BAPs from CHs after digestion (Figure 1). HIEC-6 cells and HepG2 were cultured separately but then later combined in a transwell system using polyester (PET) ThinCerts (Greiner Bio-One, Cat no. 662641, Monroe, NC, USA) and corresponding 24 multiwell cell culture plates (Greiner Bio-One, Cat no. 662160, Monroe, NC, USA). […] HIEC-6 cells were seeded onto ThinCerts at 1 × 10^5 cells/well. The medium was changed every 2 days and cells were grown for a total of 8–9 days. […] HepG2 cells were then added to the basolateral side of the transwell (1 million cells/mL). […] At time 0, the apical medium was replaced with media containing 2 mg/mL reconstituted freeze-dried (FD) CH digesta (either CH-GL and CH-OPT), or only media (blank). The co-culture and treatments were incubated for 2 h at 37 °C, 5% CO2. After 2 h, the inserts containing HIEC-6 cells were removed, and the plates containing HepG2 cells were incubated for another 3 h. Samples were taken from the apical and basolateral sides at times 0, 2 and 5 h, and microcentrifuged at 2000 rpm for 15 min. The supernatant was collected and used for subsequent peptide analysis (see Section 2.7). Three independent experiments assessing bioavailability were completed. Controls included inserts without seeded cells (TEER control) and seeded wells with no CHs treatment (only media; negative control).
(§2) Samples were purified from cellular and protein debris by adapting the use of Amicon® Ultra-0.5 Centrifugal Filter Devices (Millipore, UFC501096, Burlington, Massachusetts, USA). Samples from cell culture were processed as per the manufacturer’s instructions, however, the filtrate (comprising of peptides) was not discarded and instead used for analysis. A CE system (Capel 205M; Lumex Instruments, Fraserview Place, BC) was used for the targeted quantification of 5 peptides (Gly-Pro, Hyp-Gly, Ala-Hyp, Pro-Hyp, Gly-Pro-Hyp). The instrument was set for 20 °C and the separation capillary (Molex, 2000019, Lisle, Illinois, US) was similar to previous CE methods for collagen analysis [36]; 60 cm in total length, 53 cm effective length, and 75 µm inside diameter. Injections were completed using pressure (30 mbar for 10 s) at 0 kV and analysis was completed at 20 kV using 0 mbar for 1199 s at 205 nm. A 0.1 M phosphate buffer (pH 2.4) was used for rinsing and as running buffer. Filtered samples were diluted with running buffer before injection. Before sample injection, the capillary was rinsed with MilliQ water, 0.5 M NaOH and running buffer, each for 5 min. The electropherograms were processed to determine peak area using the software Elforun (Lumex Instruments Canada, Version 4.2.4, Mission, BC, Canada). Quantification of each peptide, based on peak area, was performed using external standards and corresponding calibration curves, where the linearity was assessed by the coefficients of determination, R^2. The mean of three measurements for each treatment was taken.
(§3) Bioavailability, after first pass metabolism, was expressed as a percentage of final and initial peptide digesta values, as described in Sadeghi Ekbatan et al. (2018) [8]. Bioavailability (%) = Peptide content after HepG2 incubation (Basolateral 5 h)/Initial amount of peptide (Apical 0 h) × 100

HIEC-6 cells [2] = test system: HIEC-6 cells
Experimental: as §1, §2
(§4) The apparent permeability coefficient (Papp) was calculated similarly to Song et al. (2020) [7], using the standard equation:Papp = ΔQ/(Δt × A × C0) where Δt is the incubation time (s), A is the surface area of the insert filter membrane (cm^2), C0 is the initial concentration of peptides in the apical compartment at time 0 h (μM), and ΔQ is the amount of peptide transported within a given period (μmol/s). The incubation timepoint (Δt) used was representative of the intestinal transport phase (2 h timepoint).

in vitro [3] = conditions: human, Apparent permeability coefficient (Papp)
Experimental: as §1, §2, §4

Caco-2 cells = conditions: cited from earlier work
[4] = Bioavailability after first pass metabolism in HIEC-6/HepG2 co-culture; conditions: human
Experimental: as §1, §2, §3

HepG2 cells [5] = test: Hepatic first pass effect on transported peptides after HepG2 incubation; conditions: basolateral 5 h as percentage of basolateral 2 h, mean ± SEM
Experimental: as §1
(§5) Samples were purified from cellular and protein debris by adapting the use of Amicon® Ultra-0.5 Centrifugal Filter Devices (Millipore, UFC501096, Burlington, Massachusetts, USA). Samples from cell culture were processed as per the manufacturer’s instructions, however, the filtrate (comprising of peptides) was not discarded and instead used for analysis. A CE system (Capel 205M; Lumex Instruments, Fraserview Place, BC) was used for the targeted quantification of 5 peptides (Gly-Pro, Hyp-Gly, Ala-Hyp, Pro-Hyp, Gly-Pro-Hyp). […] Injections were completed using pressure (30 mbar for 10 s) at 0 kV and analysis was completed at 20 kV using 0 mbar for 1199 s at 205 nm. A 0.1 M phosphate buffer (pH 2.4) was used for rinsing and as running buffer. Filtered samples were diluted with running buffer before injection. Before sample injection, the capillary was rinsed with MilliQ water, 0.5 M NaOH and running buffer, each for 5 min. The electropherograms were processed to determine peak area using the software Elforun (Lumex Instruments Canada, Version 4.2.4, Mission, BC, Canada). Quantification of each peptide, based on peak area, was performed using external standards and corresponding calibration curves, where the linearity was assessed by the coefficients of determination, R^2. The mean of three measurements for each treatment was taken.
(§6) Hepatic first pass effect (%) was calculated as:Hepatic effect (%) = Peptide content after incubation with HepG2 (Basolateral 5 h)/Content of peptide available for liver metabolism (Basolateral 2 h) × 100

[6] = Peptide transport and apparent permeability across the HIEC-6 intestinal layer of a HIEC-6/HepG2 transwell co-culture; conditions: human; for Papp A→B at 2 h: Apparent permeability coefficient (Papp), mean ± SEM
Experimental: as §1, §2, §4

HIEC-6 cells [7] = test: as above; conditions: basolateral 2 h vs apical 0 h, mean ± SEM
Experimental: as §1, §2, §4

HepG2 cells [8] = test system: HepG2 cells
Experimental: as §1, §5, §6

HIEC-6/HepG2 co-culture = conditions: human
Experimental: as §1, §2, §3

[9] = human, in vivo
[10] = human, in vivo; cited from earlier work
[11] = Peptide bioavailability after first pass metabolism

Row | SMILES | bioavailability at 5 h (in vitro [1]; [11]) [%] | Papp A→B at 2 h (in vitro [3]) [×10⁻⁶ cm/s] | Papp (Caco-2 cells; Caco-2) | Hepatic effect (%) on peptide content following HepG2 incubation (HepG2 cells [5]; CH-GL) [%] | Hepatic effect (%) on peptide content following HepG2 incubation (HepG2 cells [5]; CH-OPT) [%] | Papp A→B at 2 h ([6]; CH-GL treatment) [×10⁻⁶ cm/s] | Peptide transport (%) across intestinal epithelium (HIEC-6 cells [7]; CH-GL digesta 2 mg/mL apical) [%] | Peptide transport (%) across intestinal epithelium (HIEC-6 cells [7]; CH-OPT digesta 2 mg/mL apical) [%] | further results
1 | NCC(=O)N1CCC[C@H]1C(=O)O [Gly-Pro] (H-Gly-Pro-OH; N-terminus and C-terminus assumed) | > 32 | – | – | – | – | – | – | – | –
2 | O=C(O)CNC(=O)[C@@H]1C[C@@H](O)CN1 [Hyp-Gly] (H-[Hyp]-Gly-OH; N-terminus and C-terminus assumed) | > 32 | 6.74 ± 1.2 | 1e-05 cm/s | – | – | – | – | – | Apparent permeability coefficient (Papp) (HIEC-6 cells [2]; human, 2 h): 5.593 ± 2.476 × 10^−6 cm/s; Transport (%) (Caco-2 cells): 22.63 ± 5.19%
3 | O=C(O)[C@@H]1C[C@@H](O)CN1C(=O)[C@@H]1CCCN1 [Pro-Hyp] (H-Pro-[Hyp]-OH; N-terminus and C-terminus assumed) | – | – | – | 151.4 ± 24.3 | 63.63 ± 8.63 | 1.91 ± 0.479 | 19.18 ± 4.81 | 24.15 ± 1.42 | Papp (Caco-2 cells; Caco-2, LC-MS/MS, ref 15 (Sontakke et al. 2016)): 0.13 ± 0.03 × 10^−6 cm/s; Papp (Caco-2 cells; cell model not printed at the place, ref 40 (Feng et al. 2017)): 1.45 ± 0.17 × 10^−6 cm/s; bioavailability at 5 h ([4]; Bioavailability (%) after first pass metabolism, CH-GL, basolateral 5 h as percentage of apical 0 h, mean ± SEM): 26.8 ± 3.97%; bioavailability at 5 h ([4]; Bioavailability (%) after first pass metabolism, CH-OPT, basolateral 5 h as percentage of apical 0 h, mean ± SEM): 15.4 ± 2.6%
4 | NCC(=O)N1CCC[C@H]1C(=O)N1C[C@H](O)C[C@H]1C(=O)O [Gly-Pro-Hyp] (H-Gly-Pro-[Hyp]-OH; N-terminus and C-terminus assumed) | – | ~9 | 1.09 ± 0.03 × 10^−6 cm/s | – | – | – | – | – | Apparent permeability coefficient (Papp) (HIEC-6 cells [2]): no apparent permeability coefficient could be determined; Hepatic effect (%) on peptide content following HepG2 incubation (HepG2 cells [8]): 22.32 ± 5.09%; Bioavailability (%) after first pass metabolism (HIEC-6/HepG2 co-culture): none was observed; Increase of plasma Gly-Pro-Hyp content [9]: 162.5%; bioavailability at 5 h (in vitro [1]; Bioavailability (%) after first pass metabolism): 12.2 ± 1.12%; Gly-Pro-Hyp content in the plasma after 2 h [10]: ~ 1050 µM; Initial Gly-Pro-Hyp content in the plasma [10]: ~ 400 µM
5 | C[C@H](N)C(=O)N1C[C@H](O)C[C@H]1C(=O)O [Ala-Hyp] (H-Ala-[Hyp]-OH; N-terminus and C-terminus assumed) | – | – | – | 304.9 ± 57.2 | 198.0 ± 107.6 | 0.725 ± 0.195 | 9.27 ± 2.49 | 26.4 ± 5.78 | bioavailability at 5 h ([4]; Average bioavailability after first pass metabolism, average): > 20%; Papp at 2 h [6]: 0.725 ± 0.195 ×10⁻⁶ cm/s; Papp A→B at 2 h ([6]; CH-OPT treatment): 1.03 ± 0.226 ×10⁻⁶ cm/s
